The source of these data is article PMC5424463, “A strategy based on nucleotide specificity leads to a subfamily-selective and cell-active inhibitor of N ^6-methyladenosine demethylase FTO” (Chemical Science, 2014).

The target in data set [1] is T1, FTO (Homo sapiens, UniProt Q9C0B1).
T1 construct: The human full length FTO construct used in this study; made in house; host or cells: E. coli BL21 (DE3) Rosetta T1R
Briefly: HPLC-based inhibition assay for FTO, m3T substrate. In kind it is biochemical. The procedure: HPLC-based inhibition assays for FTO
The assay was modified from previously reported method.[17] It is performed in triplicate for each inhibitor, in a final reaction volume of 25 µL. Reaction consisted of FTO (1 µM), 2OG (50 µM), (NH4)2Fe(SO4)2·6H2O (50 µM), L-ascorbate (2 mM), 3-methylthymidine (m3T substrate, 10 µM) in 50 mM HEPES buffer, pH 7.5, and inhibitor at various concentrations (final DMSO concentration not more than 1% v/v of assay mix). The reaction was incubated at 4°C for 1 h, before analysis on a HPLC system. The substrate (m3T) and the demethylated product (thymidine) were separated using a Zorbax C18 column (4.6 mm x 250 mm) with a […]
flow rate of 1 mL/min at room temperature.
The percentage inhibition was estimated based on the peak areas of the 3-methylthymidine substrate and the thymidine product. For IC50 determination, eight different concentrations of […]
the variation in percentage demethylation at different inhibitor concentrations, using nonlinear regression, with normalized dose-response fit on GraphPad Prism 6.0™.
HPLC-based assay for FTO was also performed using an m6A-ssRNA as substrate. The assay was modified from previously reported method.[21] All reaction conditions are as described for the inhibition of m3T demethylation above, except that a 15-mer ssRNA with the sequence 5’-CUUGUCA(m6A)CAGCAGA-3’ (Yale University, W.M. Keck Foundation Biotechnology Resource Laboratory) was used as substrate (10 µM). The reaction was analysed on a bio-inert HPLC system. The m6A-ssRNA substrate and the corresponding demethylated product were separated using a Dionex DNAPac PA200 anion-exchange

A further data set deals with T2, ALKBH3 (Homo sapiens, UniProt Q96Q83).
T2 construct: Human ALKBH3 (encompassing residues 1- 286); purchased ProSpec-Tany Technogene Ltd, Israel
T2 sequence (Q96Q83 1-286): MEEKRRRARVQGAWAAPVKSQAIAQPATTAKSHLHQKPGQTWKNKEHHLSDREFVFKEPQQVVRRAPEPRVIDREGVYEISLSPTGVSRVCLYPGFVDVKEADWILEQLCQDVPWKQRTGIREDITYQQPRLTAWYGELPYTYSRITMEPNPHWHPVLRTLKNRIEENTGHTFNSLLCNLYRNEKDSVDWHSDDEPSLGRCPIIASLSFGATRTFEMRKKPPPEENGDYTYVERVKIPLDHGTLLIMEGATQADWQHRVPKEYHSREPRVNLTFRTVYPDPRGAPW
Kind of data set: Differential scanning fluorimetry (DSF)-based binding assay, ALKBH3. As to conditions: DSF, 100 μM compound, 2 μM protein, 50 μM MnCl2; for ΔTm at 100 µM: read-out: Tm shift (ALKBH3). The method, then:
(§1) Superdex-200 column (GE Healthcare) pre-equilibrated with 20 mM HEPES, pH 7.5, 300 mM NaCl, 10% (v/v) glycerol, 0.5 mM TCEP. […]
(§2) Differential scanning fluorimetry (DSF)-based binding assay
(§3) DSF-based binding assay was performed using a MiniOpticon™ Real-Time PCR Detection System (Bio-Rad), monitoring protein unfolding using SYPRO orange (Invitrogen) according to the reported method.[16] FAM (492 nm) and ROX (610 nm) filters were used for excitation and emission respectively. Reaction mixes contained 2 μM protein, 50 μM MnCl2, 100 μM compounds, 5x SYPRO orange in a final volume of 50 μl. Reagents were prepared in 50mM HEPES buffer, pH 7.5 except metals, which were dissolved as 100 mM stocks in 20 mM HCl, then further diluted in MilliQ water. Compounds tested were prepared in 100% DMSO and added such that the final concentration of DMSO was not more than 1% v/v of assay […]
(§4) mix. Fluorescence readings were taken every 1°C in the range 25-95°C, with the temperature increased linearly by 1°C min -1. The software provided was used to perform global minimum subtraction. The inflection point, representing Tm, was calculated by fitting the Boltzmann equation to the sigmoidal curves obtained; data were processed using GraphPad Prism 6.0™.
(§5) The Tm shift caused by the addition of small molecules/ fragments was determined by subtraction of the “reference” Tm (protein incubated with metal and 1% v/v DMSO) from the Tm obtained in the presence of the compound. The assay was performed in triplicate for each inhibitor, with standard deviations typically < 1°C. […]

The target in data set [2] is T1, FTO. Briefly: Differential scanning fluorimetry (DSF)-based binding assay, FTO. As to conditions: 100 μM compound, 2 μM protein; for Tm shift (FTO): 50 μM MnCl2; for ΔTm at 100 µM: 50 μM MnCl2, read-out: Tm shift (FTO). The method, then: as §1, §2
(§6) DSF-based binding assay was performed using a MiniOpticon™ Real-Time PCR Detection System (Bio-Rad), monitoring protein unfolding using SYPRO orange (Invitrogen) according […]
(§7) to the reported method.[16] […]
(§8) and emission respectively. Reaction mixes contained 2 μM protein, 50 μM MnCl2, 100 μM […]
(§9) Reagents were prepared in 50mM
(§10) HEPES buffer, pH 7.5 except metals, which were dissolved as 100 mM stocks in 20 mM HCl, then further diluted in MilliQ water. Compounds tested were prepared in 100% DMSO and added such that the final concentration of DMSO was not more than 1% v/v of assay […]
(§11) increased linearly by 1°C min -1. The software provided was used to perform global minimum subtraction. The inflection point, representing Tm, was calculated by fitting the Boltzmann equation to the sigmoidal curves obtained; data were processed using GraphPad Prism 6.0™.
(§12) The Tm shift caused by the addition of small molecules/ fragments was determined by subtraction of the “reference” Tm (protein incubated with metal and 1% v/v DMSO) from the Tm obtained in the presence of the compound. […]
In general terms: DSF heats the sample and reads unfolding from a dye or from intrinsic fluorescence.

Another data set deals with T3, AlkB (Escherichia coli, UniProt P05050).
T3 construct: made in house; host or cells: E. coli BL21 (DE3) Rosetta T1R
Briefly: Differential scanning fluorimetry (DSF)-based binding assay, AlkB. As to conditions: 100 μM compound, 2 μM protein; for Tm shift (AlkB): 50 μM MnCl2; for ΔTm at 100 µM: 50 μM MnCl2, read-out: Tm shift (AlkB). The procedure: as §1, §2, §3, §4, §5

A further data set addresses T4, ALKBH5 (Homo sapiens, UniProt Q6P6C2).
T4 construct: pNIC28-Bsa4 ALKBH5 (encompassing residues 66-292); made in house; host or cells: E. coli BL21 (DE3) Rosetta T1R
Kind of data set: Differential scanning fluorimetry (DSF)-based binding assay, ALKBH5. The note with it: 100 μM compound, 2 μM protein; for Tm shift (ALKBH5): 50 μM MnCl2; for ΔTm at 100 µM: 50 μM MnCl2, read-out: Tm shift (ALKBH5). The method, then: as §1, §2, §6, §7, §8, §9, §10, §11, §12

A further data set has as its target T5, ALKBH2 (Homo sapiens, UniProt Q6NS38).
T5 construct: made in house; host or cells: E. coli BL21 (DE3)
T5 sequence (Q6NS38 56-258): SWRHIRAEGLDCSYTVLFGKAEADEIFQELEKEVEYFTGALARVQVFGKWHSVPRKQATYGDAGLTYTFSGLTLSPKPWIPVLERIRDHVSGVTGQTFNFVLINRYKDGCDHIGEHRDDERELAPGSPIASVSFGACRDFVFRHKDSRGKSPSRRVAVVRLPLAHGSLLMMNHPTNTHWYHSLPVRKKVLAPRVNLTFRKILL
Briefly: Differential scanning fluorimetry (DSF)-based binding assay, ALKBH2. As to conditions: DSF, 100 μM compound, 2 μM protein, 50 μM MnCl2; for ΔTm at 100 µM: read-out: Tm shift (ALKBH2). The procedure:
as §1, §2, §3, §4, §5

[3] abbreviates: HPLC-based demethylase assay, m3T substrate, read-out: IC50 (FTO).

pIC50: −log10 of the molar value. Structures can show the parent of a compound that is named as a salt. Where two headings read alike, the source gives them in different places.

T1 sequence (Q9C0B1 whole entry): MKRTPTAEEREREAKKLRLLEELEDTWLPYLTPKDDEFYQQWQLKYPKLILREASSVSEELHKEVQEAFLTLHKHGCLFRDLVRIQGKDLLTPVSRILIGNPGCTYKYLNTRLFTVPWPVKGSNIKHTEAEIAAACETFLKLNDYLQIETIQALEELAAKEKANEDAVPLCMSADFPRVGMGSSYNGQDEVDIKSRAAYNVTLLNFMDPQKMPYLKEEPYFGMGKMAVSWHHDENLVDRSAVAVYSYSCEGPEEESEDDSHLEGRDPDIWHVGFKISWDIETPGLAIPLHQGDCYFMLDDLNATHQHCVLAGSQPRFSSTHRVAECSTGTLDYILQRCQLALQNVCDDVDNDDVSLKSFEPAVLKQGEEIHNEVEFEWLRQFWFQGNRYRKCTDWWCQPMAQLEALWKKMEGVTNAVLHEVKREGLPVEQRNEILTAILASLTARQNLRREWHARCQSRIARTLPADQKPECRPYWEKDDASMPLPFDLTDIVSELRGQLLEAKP
T4 sequence (Q6P6C2 66-292): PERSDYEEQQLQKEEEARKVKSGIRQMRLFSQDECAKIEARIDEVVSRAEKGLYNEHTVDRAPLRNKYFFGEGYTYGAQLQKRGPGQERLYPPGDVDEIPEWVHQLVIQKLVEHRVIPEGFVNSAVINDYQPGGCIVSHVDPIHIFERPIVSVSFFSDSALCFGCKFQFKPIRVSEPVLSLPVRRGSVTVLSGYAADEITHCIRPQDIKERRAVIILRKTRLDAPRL
T3 sequence (P05050 12-216): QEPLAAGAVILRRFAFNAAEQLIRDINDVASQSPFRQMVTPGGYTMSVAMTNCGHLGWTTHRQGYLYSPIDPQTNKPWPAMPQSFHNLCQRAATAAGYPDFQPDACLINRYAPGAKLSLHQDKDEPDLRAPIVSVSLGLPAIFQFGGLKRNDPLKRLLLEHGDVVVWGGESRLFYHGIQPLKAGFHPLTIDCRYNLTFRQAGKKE

`NNC(=O)/C=C\C(=O)O` [Compound 3, maleate hydrazide]: the pIC50 on FTO [1] (setting [3]) was less than 4.00.

With “ATTGTGG(m6A)CUGCAGC: 15-mer m6A-containing ssRNA”, the “Tm shift (ALKBH3)” value with ALKBH3 stood at 3.0 °C. Moreover, the “Tm shift (FTO)” value in the data set with FTO [2] stood at 3.0 °C. For the same molecule, the “Tm shift (AlkB)” value with AlkB worked out at 2.7 °C. Further, in the data set with ALKBH5, the “Tm shift (ALKBH5)” value was determined as 3.5 °C. The “Tm shift (ALKBH2)” value with ALKBH2 was 1.0 °C.

For the molecule `CN(C)NC(=O)CCC(=O)O` [daminozide, reference compound], the pIC50 against FTO [1] was less than 4.00.

On to `NNC(=O)CCC(=O)O` [Compound 1, succinate hydrazide], for which, on FTO [1] (setting [3]), the pIC50 is less than 4.00.

Regarding `O=C(O)/C=C/C(=O)NNC(=O)c1cnc2ccccc2c1` [Compound 8], the “IC50 (FTO)” value against FTO [1] (HPLC-based demethylase assay, m3T substrate) was “low micromolar range”.

As for “ATTGTGG(A)CUGCAGC: unmethylated counterpart of the 15-mer m6A ssRNA”, the “Tm shift (ALKBH3)” value with ALKBH3 came to 3.5 °C. In addition, in the data set with FTO [2], the “Tm shift (FTO)” value was 3.4 °C. Moreover, the “Tm shift (AlkB)” value with AlkB worked out at 2.4 °C. For the same molecule, the “Tm shift (ALKBH5)” value in the data set with ALKBH5 came to 3.6 °C. Besides, in the data set with ALKBH2, the “Tm shift (ALKBH2)” value is 1.2 °C.

In the case of “ATTGTGG(T)CTGCAGC: unmethylated counterpart of the 15-mer m3T ssDNA”, the “Tm shift (ALKBH3)” value with ALKBH3 came out at 2.4 °C. In the data set with FTO [2], the “Tm shift (FTO)” value was 3.2 °C. For the same molecule, the “Tm shift (AlkB)” value in the data set with AlkB was 2.7 °C. Moreover, in the data set with ALKBH5, the “Tm shift (ALKBH5)” value is 3.4 °C. For the same molecule, the “Tm shift (ALKBH2)” value with ALKBH2 was determined as 1.3 °C.

`CNc1ncnc2c1ncn2[C@@H]1O[C@H](CO)[C@@H](O)[C@H]1O` [m6A, N ^6-methyladenosine]: the ΔTm at 100 µM at ALKBH3 stood at 2.1 °C; at FTO [2] it was 2.4 °C; at AlkB, 2.6 °C; on ALKBH5, 9.8 °C; at ALKBH2, 1.3 °C.

Consider `NNC(=O)/C=C/C(=O)O` [Compound 2, fumarate hydrazide], for which, on FTO [1] (setting [3]), the pIC50 was less than 4.00.

In the case of “ATTGTGG(m3T)CTGCAGC: 15-mer m3T-containing ssDNA”, the “Tm shift (ALKBH3)” value with ALKBH3 is 2.9 °C. Moreover, the “Tm shift (FTO)” value with FTO [2] turned out to be 3.0 °C. Moreover, the “Tm shift (AlkB)” value with AlkB turned out to be 3.1 °C. Moreover, the “Tm shift (ALKBH5)” value in the data set with ALKBH5 amounted to 2.6 °C. Further, in the data set with ALKBH2, the “Tm shift (ALKBH2)” value stood at 1.5 °C.

As to `Cc1cn([C@H]2C[C@H](O)[C@@H](CO)O2)c(=O)n(C)c1=O` [m3T, N ^3-methylthymidine], the ΔTm at 100 µM came out at 1.3 °C on ALKBH3; 12.1 °C on FTO [2]; 1.4 °C on AlkB; 1.1 °C on ALKBH5; 1.1 °C on ALKBH2.

One may read the pIC50 as the negative decadic logarithm of the IC50, by convention in mol/L.
